Counter-ions that a name gives are not always drawn.
Tested on: human platelet aggregation induced by ADP
Assay: Inhibition of human platelet aggregation induced by ADP
Format: cell-based
Details: test compound 1.0 × 10^-7 M; human platelet rich plasma; ADP 2.5 μM final; 37° C.; mean ± S.E.
Method: Inhibition of human platelet aggregation induced by ADP
The citrate blood was centrifuged at 150 ×g for 10 minutes and the platelet rich plasma (PRP) was removed. The remaining blood was centrifuged for a further 10 minutes at 1500 ×g to prepare the platelet poor plasma (PPP), which was used as a reference for platelet aggregation. […] 25 μl of sample solution and 225 μl of PRP were mixed and stirred at 1000 rpm for 2 minutes at 37° C. Aggregation was induced by ADP solution at the final concentration of 2.5 μM.

O=C(O)COc1cccc2c1CCC[C@H]2N1CCC[C@@H]1c1nc(-c2ccccc2)c(-c2ccccc2)o1 [Test Compound (2), Sodium salt of (1R)-1-((2R)-2-(4,5-diphenyloxazol-2-yl)pyrrolidin-1-yl]-5-carboxymethoxy-1,2,3,4-tetrahydronaphthalene]
inhibition at 0.1 µM: 85 ± 7.6%

O=C(O)COc1cccc(CC2CCCCC=C2c2nc(-c3ccccc3)c(-c3ccccc3)o2)c1 (centres unmarked) [Test Compound (1), Sodium [3-[[2-(4,5-diphenyloxazol-2-yl)-2-cyclohepten-1-yl]methyl]phenoxy]acetate]
inhibition at 0.1 µM: 88 ± 0.5%
